Article PMC8400480, “Synthesis, Antibacterial and Pharmacokinetic Evaluation of Novel Derivatives of Harmine N^9-Cinnamic Acid” (Molecules, 2021)
≈ marks a conversion by molar mass, not a printed value.

Experiments:
[1] = tested on: Pseudomonas aeruginosa CVCC 3359 (PA); experiment: MIC, microplate dilution method; format: cell-based; conditions: Gram-negative, Mueller-Hinton broth, 37 °C, 18–24 h, read-out: MIC PA
From the text: (§1) According to microplate dilution method, all the prepared compounds were screened for their in vitro antibacterial activity. The investigation included three representative Gram-positive strains, including Staphylococcus aureus CICC 10384 (S. aureus), Staphylococcus albus CICC 20237 (S. albus) and methicillinresistant Staphylococcus aureus ATCC 43300 (MRSA), and two representative Gram-negative strains, including Escherichia coli CICC 10389 (E. coli) and Pseudomonas aeruginosa CVCC 3359 (PA). Harmine and cinnamic acid were used as reference drugs.
(§2) The antibacterial efficiency of all prepared compounds was determined using the microplate dilution method. All compounds were prepared into different concentrations of stock solution according to their solubility. The compounds were added to the 96 well plate and serially diluted in Mueller-Hinton broth. Three Gram-positive strains (S. aureus, S. albus and MRSA) and two Gram-negative strains (E. coli and PA) were cultivated and added to the 96 well plate. The initial concentration of bacteria should be higher than 10^5 CFU/mL. The samples were incubated at 37 °C for 18–24 h. The MIC was determined for compounds by observing change of clarity in the broth. The same procedure was repeated in triplicate.

[2] = tested on: Escherichia coli CICC 10389 (E. coli); experiment: MIC, microplate dilution method; format: cell-based; conditions: Gram-negative, Mueller-Hinton broth, 37 °C, 18–24 h, read-out: MIC E. coli
From the text: as §1, §2

[3] = tested on: Staphylococcus aureus CICC 10384 (S. aureus); experiment: MIC, microplate dilution method; format: cell-based; conditions: Gram-positive, Mueller-Hinton broth, 37 °C, 18–24 h, read-out: MIC S. aureus
From the text: as §1, §2

[4] = tested on: methicillinresistant Staphylococcus aureus ATCC 43300 (MRSA); experiment: MIC, microplate dilution method; format: cell-based; conditions: Gram-positive, Mueller-Hinton broth, 37 °C, 18–24 h, read-out: MIC MRSA
From the text: as §1, §2

[5] = tested on: Staphylococcus albus CICC 20237 (S. albus); experiment: MIC, microplate dilution method; format: cell-based; conditions: Gram-positive; Mueller-Hinton broth, 37 °C, 18–24 h; read-out: MIC S. albus
From the text: as §1, §2

S. aureus (CICC 10384) = experiment: Bactericidal time-kill kinetics; format: cell-based, Staphylococcus aureus
Procedure: The bacteria S. aureus was prepared in Muellere Hinton broth at 37 °C for 6 h with shaking. The solution of 3c (1 × MIC and 6 × MIC), 5a (1 × MIC and 6 × MIC), harmine (1 × MIC and 6 × MIC) and saline (served as a control group) were separately added to the bacterial suspension so that the final bacterial concentration were 10^6~10^7 CFU/mL. At the predetermined time point (0, 0.5, 2, 4, 6, 12 and 24 h), […] of aliquots were serially diluted in normal saline, plated on sterile Muellere Hinton agar plates, and incubated at 37 °C for 24 h. After incubation, the viable colonies were counted and represented as log10 (CFU/mL). The same procedure was repeated in triplicate.
Figure 3 Time-kill kinetics of compound 3c (A) and 5a (B) at 1 × and 6 × MIC against S. aureus (CICC 10384).

melting point | MIC [1] | MIC [2] | MIC [3] | MIC [4] | MIC [5] | SMILES | time to 4-log10 reduction (S. aureus (CICC 10384); 1 × MIC) | time to completely kill the bacteria (S. aureus (CICC 10384); 6 × MIC)
117.3 to 119.9 °C | 750 µg/mL (≈ 1540 µM) | 750 µg/mL (≈ 1540 µM) | 375 µg/mL (≈ 769 µM) | 1500 µg/mL (≈ 3080 µM) | 750 µg/mL (≈ 1540 µM) | COc1ccc2c3ccnc(C)c3n(CCCCCCOC(=O)/C=C/c3ccccc3[N+](=O)[O-])c2c1 [Compound 6c, 6-(7-Methoxy-1-methyl-9H-pyridine [3,4-b]indole-9-yl) hexyl(E)-3-(2-nitrophenyl) acrylate] |  | 
88.7 to 90.4 °C | 331 µg/mL (≈ 701 µM) | 662 µg/mL (≈ 1400 µM) | 82.8 µg/mL (≈ 175 µM) | 331 µg/mL (≈ 701 µM) | 166 µg/mL (≈ 350 µM) | COc1ccc(/C=C/C(=O)OCCCCCCn2c3cc(OC)ccc3c3ccnc(C)c32)cc1 [Compound 6a, 6-(7-Methoxy-1-methyl-9H-pyridine [3,4-b]indole-9-yl) hexyl (E)-3-(4-methoxyphenyl) acrylate] |  | 
113.1 to 115 °C | 212 µg/mL (≈ 318 µM) | 212 µg/mL (≈ 318 µM) | 53.1 µg/mL (≈ 79.4 µM) | 212 µg/mL (≈ 318 µM) | 53.1 µg/mL (≈ 79.4 µM) | COc1ccc2c3ccnc(C)c3n(CCCCCCOC(=O)/C(=C/c3cc(OC)c(OC)c(OC)c3)c3ccc(OC)c(OC)c3)c2c1 [Compound 6d, 6-(7-Methoxy-1-methyl-9H-pyridine [3,4-b]indole-9-yl) hexyl (E)-2-(3,4-dimethoxyphenyl)-3– (3,4,5-trimethoxyphenyl) acrylate] |  | 
117.4 to 119.9 °C | 381 µg/mL (≈ 582 µM) | 762 µg/mL (≈ 1160 µM) | 23.8 µg/mL (≈ 36.4 µM) | 95.3 µg/mL (≈ 146 µM) | 95.3 µg/mL (≈ 146 µM) | COc1ccc2c3ccnc(C)c3n(CCCCCOC(=O)/C(=C/c3cc(OC)c(OC)c(OC)c3)c3ccc(OC)c(OC)c3)c2c1 [Compound 5d, 5-(7-Methoxy-1-methyl-9H-pyridine [3,4-b]indole-9-yl) pentyl (E)-2-(3,4-dimethoxyphenyl)-3-(3,4,5-trimethoxyphenyl) acrylate] |  | 
127.4 to 130 °C | 220 µg/mL (≈ 465 µM) | 220 µg/mL (≈ 465 µM) | 110 µg/mL (≈ 232 µM) | 220 µg/mL (≈ 465 µM) | 110 µg/mL (≈ 232 µM) | COc1ccc2c3ccnc(C)c3n(CCCCCOC(=O)/C=C/c3ccccc3[N+](=O)[O-])c2c1 [Compound 5c, 5-(7-Methoxy-1-methyl-9H-pyridine [3,4-b]indole-9-yl) amyl (E)-3-(2-nitrophenyl) acrylate] |  | 
103.7 to 104.7 °C | 1140 µg/mL (≈ 2190 µM) | 1140 µg/mL (≈ 2190 µM) | 1140 µg/mL (≈ 2190 µM) | 2280 µg/mL (≈ 4390 µM) | 2280 µg/mL (≈ 4390 µM) | COc1ccc2c3ccnc(C)c3n(CCCCCOC(=O)/C=C/c3cc(OC)c(OC)c(OC)c3)c2c1 [Compound 5b, 5-(7-Methoxy-1-methyl-9H-pyridine [3,4-b]indole-9-yl) amyl (E)-3-(3,4,5-trimethoxyphenyl) acrylate] |  | 
73.7 to 73.9 °C | 305 µg/mL (≈ 573 µM) | 305 µg/mL (≈ 573 µM) | 152 µg/mL (≈ 286 µM) | 306 µg/mL (≈ 574 µM) | 152 µg/mL (≈ 286 µM) | COc1ccc2c3ccnc(C)c3n(CCCCCCOC(=O)/C=C/c3cc(OC)c(OC)c(OC)c3)c2c1 [Compound 6b, 6-(7-Methoxy-1-methyl-9H-pyridine [3,4-b]indole-9-yl) hexyl (E)-3-(3,4,5-trimethoxyphenyl) acrylate] |  | 
91.1 to 92.3 °C | 125 µg/mL (≈ 273 µM) | 250 µg/mL (≈ 545 µM) | 15.6 µg/mL (≈ 34.1 µM) | 62.5 µg/mL (≈ 136 µM) | 15.6 µg/mL (≈ 34.1 µM) | COc1ccc(/C=C/C(=O)OCCCCCn2c3cc(OC)ccc3c3ccnc(C)c32)cc1 [Compound 5a, 5-(7-Methoxy-1-methyl-9H-pyridine [3,4-b]indole-9-yl) amyl (E)-3-(4-methoxyphenyl) acrylate] | about 24 h | ≤ 12 h

More lines, now with the values behind:

SMILES | melting point | MIC [1] | MIC [2] | MIC [3] | MIC [4] | MIC [5] | time to 4-log10 reduction (S. aureus (CICC 10384); 1 × MIC) | time to completely kill the bacteria (S. aureus (CICC 10384); 6 × MIC)
O=C(O)/C=C/c1ccccc1 [Cinnamic acid] |  | 1120 µg/mL (≈ 7590 µM) | 1120 µg/mL (≈ 7590 µM) | 1120 µg/mL (≈ 7590 µM) | 1120 µg/mL (≈ 7590 µM) | 1120 µg/mL (≈ 7590 µM) |  | 
COc1ccc2c3ccnc(C)c3n(CCCCOC(=O)/C(=C/c3cc(OC)c(OC)c(OC)c3)c3ccc(OC)c(OC)c3)c2c1 [Compound 4d, 4-(7-Methoxy-1-methyl-9H-pyridine [3,4-b]indole-9-yl) butyl (E)-2-(3,4-dimethoxyphenyl)-3-(3,4,5-trimethoxyphenyl) acrylate] | 95.7 to 97.4 °C | 212 µg/mL (≈ 332 µM) | 212 µg/mL (≈ 332 µM) | 26.6 µg/mL (≈ 41.5 µM) | 106 µg/mL (≈ 166 µM) | 53.1 µg/mL (≈ 82.9 µM) |  | 
COc1ccc(/C=C/C(=O)OCCCn2c3cc(OC)ccc3c3ccnc(C)c32)cc1 [Compound 3a, 3-(7-Methoxy-1-methyl-9H-pyridine [3,4-b]indole-9-yl)propyl(E)-3-(4-methoxyphenyl) acrylate] | 133.2 to 133.9 °C | 325 µg/mL (≈ 755 µM) | 650 µg/mL (≈ 1510 µM) | 325 µg/mL (≈ 755 µM) | 1300 µg/mL (≈ 3020 µM) | 650 µg/mL (≈ 1510 µM) |  | 
COc1ccc(/C=C/C(=O)OCCCCn2c3cc(OC)ccc3c3ccnc(C)c32)cc1 [Compound 4a, 4-(7-Methoxy-1-methyl-9H-pyridine [3,4-b]indole-9-yl) butyl (E)-3-(4-methoxyphenyl) acrylate] | 118.7 to 120.2 °C | 305 µg/mL (≈ 686 µM) | 152 µg/mL (≈ 343 µM) | 305 µg/mL (≈ 686 µM) | 610 µg/mL (≈ 1370 µM) | 305 µg/mL (≈ 686 µM) |  | 
COc1ccc2c3ccnc(C)c3n(CCCOC(=O)/C(=C/c3cc(OC)c(OC)c(OC)c3)c3ccc(OC)c(OC)c3)c2c1 [Compound 3d, 3-(7-Methoxy-1-methyl-9H-pyridine [3,4-b]indole-9-yl) propyl (E)-2-(3,4-dimethoxyphenyl)-3-(3,4,5-trimethoxyphenyl) acrylate] | 173.6 to 175.2 °C | 362 µg/mL (≈ 578 µM) | 725 µg/mL (≈ 1160 µM) | 181 µg/mL (≈ 289 µM) | 362 µg/mL (≈ 578 µM) | 725 µg/mL (≈ 1160 µM) |  | 
COc1ccc2c3ccnc(C)c3n(CCCOC(=O)/C=C/c3cc(OC)c(OC)c(OC)c3)c2c1 [Compound 3b, 3-(7-Methoxy-1-methyl-9H-pyridine [3,4-b]indole-9-yl) propyl (E)-3-(3,4,5-trimethoxyphenyl) acrylate] | 102.6 to 104.2 °C | 319 µg/mL (≈ 650 µM) | 638 µg/mL (≈ 1300 µM) | 319 µg/mL (≈ 650 µM) | 638 µg/mL (≈ 1300 µM) | 638 µg/mL (≈ 1300 µM) |  | 
COc1ccc2c3ccnc(C)c3n(CCCCOC(=O)/C=C/c3cc(OC)c(OC)c(OC)c3)c2c1 [Compound 4b, 4-(7-Methoxy-1-methyl-9H-pyridine [3,4-b]indole-9-yl) butyl (E)-3-(3,4,5-trimethoxyphenyl) acrylate] | 95.7 to 96.3 °C | 450 µg/mL (≈ 892 µM) | 450 µg/mL (≈ 892 µM) | 112 µg/mL (≈ 223 µM) | 450 µg/mL (≈ 892 µM) | 225 µg/mL (≈ 446 µM) |  | 
COc1ccc2c3ccnc(C)c3n(CCCCOC(=O)/C=C/c3ccccc3[N+](=O)[O-])c2c1 [Compound 4c, 4-(7-Methoxy-1-methyl-9H-pyridine [3,4-b]indole-9-yl) butyl (E)-3-(2-nitrophenyl) acrylate] | 130.9 to 132.2 °C | 388 µg/mL (≈ 843 µM) | 775 µg/mL (≈ 1690 µM) | 1550 µg/mL (≈ 3370 µM) | 1550 µg/mL (≈ 3370 µM) | 1550 µg/mL (≈ 3370 µM) |  | 
